Tested on: Bleomycin-induced IPF
Assay: Treatment of bleomycin-induced IPF in mice
Type: in vivo
Text: Example 16: Effect of Compound 7 in the Treatment of Bleomycin-Induced IPF Timed pregnant mice (n=30) were selected for the study. The delivered pups were subcutaneously injected on the post-natal day 2 (PND-2) with 1.5 U/kg of Bleomycin (intra-tracheal) and were allowed to remain with the mother until they reached the weanling age. After weanling, the male pups were selected and fed with 60% kcal fat diet (Research Diet-D12492) for the next week. All the animals were observed twice daily for clinical signs. Mice were orally dosed with vehicle, test compounds and reference compound (Pirfenidone) twice daily morning (9.00 AM) and evening before the start of dark cycle (6:00 PM) from day 0 to 14. Animal body weight measurements were made daily for the complete duration of the experiment. Animals were dosed for 14 days with the test and reference compounds. Lung hydroxyproline level was estimated before the treatment start and on the termination day 14. Total cell count and differential leukocyte count in BALF were measured before the treatment start and on […]. Histopathology analysis in the form of H&E Ashcroft score was performed for the lung tissues. All the H&E stained tissue sections were examined by light microscopy. As per the below grading system (Kleiner et al., 2005) in 200× objective lens, IPF scoring was carried out. Collagen Proportion Area (% CPA) Measurement: Masson's Trichrome Staining All the Masson's trichrome stained tissue sections were examined by light microscopy in 100× objective lens. Randomly selected five fields (approx 684.85 μm×917.11m per field) from each lung were subjected to collagen proportion area measurement by using Image Pro Premier 9.1 software. The percentage of collagen proportion area was calculated by dividing collagen tissue area by total tissue area.

Structure (SMILES): CCOc1ccc(Oc2cc(S(=O)(=O)N(C)C)cnc2N2CCC(Oc3ccc(Cl)cc3)CC2)cc1 [Compound 7]
- lung hydroxyproline levels (15 mg/kg dose, oral twice daily, 14 days, vs Bleomycin control, FIG. 4): significantly reduced
- reduction of lung hydroxyproline levels compared with Pirfenidone (Compound 7 15 mg/kg vs 100 mg/kg Pirfenidone): higher than for 100 mg/kg Pirfenidone
- BALF macrophage counts (compared with Bleomycin control, Compound 7 p>0.05, Pirfenidone p<0.05, FIGS. 5A and 5B): reduced
- % CPA (Collagen Proportion Area) (lung, Masson's trichrome, in comparison with Bleomycin control, p<0.05, FIG. 6B): significant reduction
- fibrosis score (H&E Ashcroft Score) (lung, in comparison with Bleomycin control, p<0.05, FIG. 6A): significant reduction

Source: patent US12071431B2, “Pyridin-sulfonamide compounds for the treatment of conditions related to interleukin 1 beta” (ALLINKY BIOPHARMA, priority 2018, dated 2024)
